pIC50: −log10 of the molar value.
Tests used:
[1] = system: phosphorylation of MAP kinase (ERK) in murine colon 26 (C26) carcinoma cells; assay: Cellular inhibition of ERK phosphorylation, C26ELSA (pERK ELISA format); type: cell-based; conditions: Mus musculus, 1 h, C26 cells treated with test compound for one hour at 37° C.
Protocol: (§1) MEK inhibitors were evaluated by determining their ability to inhibit phosphorylation of MAP kinase (ERK) in murine colon 26 (C26) carcinoma cells. Since ERK1 and ERK2 represent the only known substrates for MEK1and MEK2, the measurement of inhibition of ERK phosphorylation in cells provides direct read out of cellular MEK inhibition by the compounds of the invention. Detection of phosphorylation of ERK was carried out either by Western blot or ELISA format. Briefly, the assays involve treatment of exponentially growing C26 cells with varying concentrations of the test compound (or vehicle control) for one hour at 37° C. For Western blot assay, cells were rinsed free of compound/vehicle and lysed in a solution containing 70 mM NaCl, 50 mM glycerol phosphate, 10 mM HEPES, pH 7.4, 1% Triton X-100, 1 mM Na3VO4, 100 μM PMSF, 10 μM leupeptin and 10 μM pepstatin. Supernatants were then subjected to gel electrophoresis and hybridized to a primary antibody recognizing dually phosphorylated ERK1 and ERK2. To evaluate total MAPK levels, blots were subsequently ‘stripped’ and re-probed with a 1:1 mixture of polyclonal antibodies recognizing unphosphorylated ERK1 and ERK2. For pERK ELISA assay, pERK TiterZyme Enzyme immunometric Assay kits were acquired from Assay Designs, Inc (Ann Arbor, Mich.). Briefly, cells were harvested in lysis solution containing 50 mM β-glycerophosphate, 10 mM HEPES, ph7.4, 70 mM NaCl, 2 mM EDTA and 1% SDS and protein lysates were diluted 1:15 with supplied Assay buffer prior to the execution of the assay. The subsequent steps were carried out essentially as recommended by the manufacturer.
(§2) The inhibition data generated by the above protocols is disclosed in Table I. If several concentrations of inhibitor were tested, IC50 values (the concentration which gives 50% inhibition) were determined graphically from the dose response curve for % inhibition. Otherwise, percent inhibitions at measured concentrations are reported.

[2] = system: phosphorylation of MAP kinase (ERK) in murine colon 26 (C26) carcinoma cells; assay: Cellular inhibition of ERK phosphorylation, C26CPA1; type: cell-based; conditions: Mus musculus, 1 h; C26 cells treated with test compound for one hour at 37° C.
Protocol: as §1, §2

Row | Compound | melting point [°C] | pIC50 [1] | pIC50 [2]
1 | Cn1cc(C(=O)NOCCO)c(Nc2ccc(I)cc2F)cc1=O [Example 1, 4-(2-Fluoro-4-iodoanilino)-N-(2-hydroxyethoxy)-1-methyl-6-oxo-1,6-dihydro-3-pyridinecarboxamide] | 148 to 151 | 8.31 | 7.36
2 | Cn1cc(C(=O)NCCCO)c(Nc2ccc(I)cc2F)cc1=O [Example 5, 4-(2-Fluoro-4-iodoanilino)-N-(3-hydroxypropyl)-1-methyl-6-oxo-1,6-dihydro-3-pyridinecarboxamide] | 81 to 86 |  | 7.22
3 | NC(=O)c1cn(CC(O)CO)c(=O)cc1Nc1ccc(I)cc1F (stereo not drawn) [Example 31, 1-(2,3-Dihydroxypropyl)-4-(2-fluoro-4-iodoanilino)-6-oxo-1,6-dihydro-3-pyridinecarboxamide] | 210 to 213 |  | 5.85
4 | Cn1cc(C(=O)NCCCO)c(Nc2ccc3ccccc3c2)cc1=O [Example 42, N-(3-Hydroxypropyl)-1-methyl-4-(2-naphthylamino)-6-oxo-1,6-dihydro-3-pyridinecarboxamide] | 78 to 83 | 7.03 | 
5 | Cn1cc(C(=O)NC(CO)(CO)CO)c(Nc2ccc(I)cc2F)cc1=O [Example 47, 4-(2-Fluoro-4-iodoanilino)-N-[2-hydroxy-1,1-bis(hydroxymethyl)ethyl]-1-methyl-6-oxo-1,6-dihydro-3-pyridinecarboxamide] | 100 to 105 | ≤ 5.30 | 
6 | Cn1cc(C(=O)OCC(N)(CO)CO)c(Nc2ccc(I)cc2F)cc1=O [Example 48, 2-Amino-3-hydroxy-2-(hydroxymethyl)propyl-4-(2-fluoro-4-iodoanilino)-1-methyl-6-oxo-1,6-dihydro-3-pyridinecarboxylate] | 117 to 122 | ≤ 5.30 | 

The remaining lines, values ahead:

Row | melting point [°C] | pIC50 [1] | pIC50 [2] | Compound
7 | 252 to 254 | ≤ 5.30 |  | CNC(=O)c1cn(C)c(=O)cc1Nc1ccc(I)cc1F [Example 51, 4-(2-Fluoro-4-iodoanilino)-N,1-dimethyl-6-oxo-1,6-dihydro-3-pyridinecarboxamide]
8 | 153 to 154 | ≤ 5.30 |  | CCOC(=O)c1cn(C)c(=O)cc1Nc1ccc(C)c(C)c1 [Example 57, 4-(3,4-Dimethyl-phenylamino)-1-methyl-6-oxo-1,6-dihydro-pyridine-3-carboxylic acid ethyl ester]
9 | 141 to 143 | 5.41 |  | CCOC(=O)c1cn(C)c(=O)cc1Nc1ccc2c(c1)CCC2 [Example 58, 4-(Indan-5-ylamino)-1-methyl-6-oxo-1,6-dihydro-pyridine-3-carboxylic acid ethyl ester]
10 |  |  | 7.12 | Cn1cc(C(N)=O)c(Nc2ccc(Cl)c(Cl)c2Cl)cc1=O [Example 67, 1-Methyl-6-oxo-4-(2,3,4-trichloro-phenylamino)-1,6-dihydro-pyridine-3-carboxylic acid amide]
11 |  |  | 5.55 | CSc1ccc(Nc2cc(=O)n(C)cc2C(=O)NC(CO)CO)c(F)c1 [Example 89, 4-(2-Fluoro-4-methylsulfoanyl-phenylamino)-1-methyl-6-oxo-1,6, dihydro-pyridine-3-carboxylic acid (2-hydroxy-1-hydroxymethyl-ethyl)-amide]

From patent US7273877B2, “5-substituted-4-[(substituted phenyl) amino]-2-pyridone derivatives” (Warner-Lambert Company, LLC, priority 2003, dated 2007)
